Source: patent US11702429B2, “mTORC modulators and uses thereof” (Aeovian Pharmaceuticals, Inc., priority 2019, dated 2023)
Where two headings read alike, the source gives them in different places.

Columns and labels:
mTORC2 = target: T1, mTORC2 (Homo sapiens, UniProt P42345+P62942); experiment: Inhibition assay for mTORC2: phosphorylation of pAkt at Ser473, AlphaLISA in PC3 cells; format: cell-based; details: for IC50: read-out: pIC50 mTORC2 (converted)
T1 construct: endogenous in cells; host or cells: PC3 cells (human prostate adenocarcinoma)
T1 sequence (P62942 2-108 limits assumed, other chains not shown): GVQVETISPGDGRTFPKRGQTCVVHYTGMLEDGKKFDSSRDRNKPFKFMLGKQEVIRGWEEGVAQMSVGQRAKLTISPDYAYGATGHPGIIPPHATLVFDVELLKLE

mTORC1 = target: T2, mTORC1 (Homo sapiens, UniProt P42345+P62942); experiment: Inhibition assay for mTORC1: phosphorylation of pS6K at Thr389, AlphaLISA in PC3 cells; format: cell-based; details: for IC50: read-out: pIC50 mTORC1 (converted)
T2 construct: endogenous in cells; host or cells: PC3 cells (human prostate adenocarcinoma)

[1] = PC3 cells, treated 24 hours, pAkt Ser473, AlphaLISA, C16 diastereomer mixtures not separated
[2] = PC3 cells, treated 24 hours, pS6K Thr389, AlphaLISA, C16 diastereomer mixtures not separated

SMILES | IC50 (mTORC2) | IC50 (mTORC1) | other results
COC1C[C@@H]2CC[C@@H](C)[C@@](O)(O2)C(=O)C(=O)N2CCCCC2C(=O)O[C@H]([C@H](C)C[C@@H]2CC[C@@H](OCCCCN3CCOCC3)[C@H](OC)C2)CC(=O)[C@H](C)/C=C(\C)[C@@H](O)[C@@H](OC)C(=O)[C@H](C)C[C@H](C)/C=C/C=C/C=C/1C (stereo partly drawn) [Compound 300] | < 1 µM | < 0.000316 µM | 
CO[C@@H]1C[C@H](C[C@@H](C)[C@@H]2CC(=O)[C@H](C)/C=C(\C)[C@@H](O)[C@@H](OC)C(=O)[C@H](C)C[C@H](C)/C=C/C=C/C=C(\C)C(OCCCCO)C[C@@H]3CC[C@@H](C)[C@@](O)(O3)C(=O)C(=O)N3CCCC[C@H]3C(=O)O2)CC[C@H]1OCCCN1CCOCC1 (mixture of isomers) [Compound 27] |  |  | IC50 (mTORC2; [1]): 1 to 10 µM; IC50 (mTORC1; [2]): < 0.000316 µM
COCCOC1C[C@@H]2CC[C@@H](C)[C@@](O)(O2)C(=O)C(=O)N2CCCC[C@H]2C(=O)O[C@H]([C@H](C)C[C@@H]2CC[C@@H](OCCCN3CCC(C(C)(C)O)CC3)[C@H](OC)C2)CC(=O)[C@H](C)/C=C(\C)[C@@H](O)[C@@H](OC)C(=O)[C@H](C)C[C@H](C)/C=C/C=C/C=C/1C (mixture of isomers) [Compound 74] |  |  | IC50 (mTORC2; [1]): 1 to 10 µM; IC50 (mTORC1; [2]): < 0.000316 µM
COC1CC2CCC(C)C(O)(O2)C(=O)C(=O)N2CCCCC2C(=O)OC(C(C)CC2CCC(O[Si](C)(C)C(C)(C)C)C(OC)C2)CC(=O)C(C)C=C(C)C(O)C(OC)C(=O)C(C)CC(C)C=CC=CC=C1C (stereo not drawn) [Compound 302] | 1 to 10 µM | > 0.00316 µM | 
CO[C@@H]1C[C@H](C[C@@H](C)[C@@H]2CC(=O)[C@H](C)/C=C(\C)[C@@H](O)[C@@H](OC)C(=O)[C@H](C)C[C@H](C)/C=C/C=C/C=C(\C)C(OCC(C)(C)O)C[C@@H]3CC[C@@H](C)[C@@](O)(O3)C(=O)C(=O)N3CCCCC3C(=O)O2)CC[C@H]1O (stereo partly drawn) [Compound 216] | 1 to 10 µM | 0.000316 to 0.00316 µM | 
COC1C[C@@H]2CC[C@@H](C)[C@@](O)(O2)C(=O)C(=O)N2CCCCC2C(=O)O[C@H]([C@H](C)C[C@@H]2CC[C@@H](OCCN3CCC(O)CC3)[C@H](OC)C2)CC(=O)[C@H](C)/C=C(\C)[C@@H](O)[C@@H](OC)C(=O)[C@H](C)C[C@H](C)/C=C/C=C/C=C/1C (stereo partly drawn) [Compound 353] | < 1 µM | < 0.000316 µM | 
CO[C@@H]1C[C@H](C[C@@H](C)[C@@H]2CC(=O)[C@H](C)/C=C(\C)[C@@H](O)[C@@H](OC)C(=O)[C@H](C)C[C@H](C)/C=C/C=C/C=C(\C)C(OC[C@@H](C)O)C[C@@H]3CC[C@@H](C)[C@@](O)(O3)C(=O)C(=O)N3CCCC[C@H]3C(=O)O2)CC[C@H]1OCCO (mixture of isomers) [Compound 49] |  |  | IC50 (mTORC2; [1]): > 10 µM; IC50 (mTORC1; [2]): 0.000316 to 0.00316 µM
COC1C[C@@H]2CC[C@@H](C)[C@@](O)(O2)C(=O)C(=O)N2CCCCC2C(=O)O[C@H]([C@H](C)C[C@@H]2CC[C@@H](OC(=O)CN(C)C)[C@H](OC)C2)CC(=O)[C@H](C)/C=C(\C)[C@@H](O)[C@@H](OC)C(=O)[C@H](C)C[C@H](C)/C=C/C=C/C=C/1C (stereo partly drawn) [Compound 343] | < 1 µM | < 0.000316 µM | 
COC1C[C@@H]2CC[C@@H](C)[C@@](O)(O2)C(=O)C(=O)N2CCCCC2C(=O)O[C@H]([C@H](C)C[C@@H]2CC[C@@H](n3ncnn3)[C@H](OC)C2)CC(=O)[C@H](C)/C=C(\C)[C@@H](O)[C@@H](OC)C(=O)[C@H](C)C[C@H](C)/C=C/C=C/C=C/1C (stereo partly drawn) [Compound 307] | < 1 µM | < 0.000316 µM | 
COC1C[C@@H]2CC[C@@H](C)[C@@](O)(O2)C(=O)C(=O)N2CCCCC2C(=O)O[C@H]([C@H](C)C[C@@H]2CC[C@@H](OC(=O)NCc3ccccc3)[C@H](OC)C2)CC(=O)[C@H](C)/C=C(\C)[C@@H](O)[C@@H](OC)C(=O)[C@H](C)C[C@H](C)/C=C/C=C/C=C/1C (stereo partly drawn) [Compound 355] | < 1 µM | < 0.000316 µM | 
CO[C@@H]1C[C@H](C[C@@H](C)[C@@H]2CC(=O)[C@H](C)/C=C(\C)[C@@H](O)[C@@H](OC)C(=O)[C@H](C)C[C@H](C)/C=C/C=C/C=C(\C)C(OCCC3CCOCC3)C[C@@H]3CC[C@@H](C)[C@@](O)(O3)C(=O)C(=O)N3CCCCC3C(=O)O2)CC[C@H]1O (stereo partly drawn) [Compound 213] | 1 to 10 µM | 0.000316 to 0.00316 µM | 
COCCOC1CC2CCC(C)C(O)(O2)C(=O)C(=O)N2CCCCC2C(=O)OC(C(C)CC2CCC(OCCO)C(OC)C2)CC(=O)C(C)C=C(C)C(O)C(OC)C(=O)C(C)CC(C)C=CC=CC=C1C (stereo not drawn) [Compound 40] |  |  | pIC50 mTORC2 (mTORC2; [1]): B (5 to 6 as B); pIC50 mTORC1 (mTORC1; [2]): A (pIC50 for mTORC1 of >9.5 as A)
COC1C[C@@H]2CC[C@@H](C)[C@@](O)(O2)C(=O)C(=O)N2CCCCC2C(=O)O[C@H]([C@H](C)C[C@@H]2CC[C@@H](OC(=O)NCCCN3CCOCC3)[C@H](OC)C2)CC(=O)[C@H](C)/C=C(\C)[C@@H](O)[C@@H](OC)C(=O)[C@H](C)C[C@H](C)/C=C/C=C/C=C/1C (stereo partly drawn) [Compound 344] | < 1 µM | < 0.000316 µM | 
COC1C[C@@H]2CC[C@@H](C)[C@@](O)(O2)C(=O)C(=O)N2CCCCC2C(=O)O[C@H]([C@H](C)C[C@@H]2CC[C@@H](OC(=O)N(C)CCN3CCOCC3)[C@H](OC)C2)CC(=O)[C@H](C)/C=C(\C)[C@@H](O)[C@@H](OC)C(=O)[C@H](C)C[C@H](C)/C=C/C=C/C=C/1C (stereo partly drawn) [Compound 356] | < 1 µM | < 0.000316 µM | 
COCCOCCNC(=O)O[C@@H]1CC[C@@H](C[C@@H](C)[C@@H]2CC(=O)[C@H](C)/C=C(\C)[C@@H](O)[C@@H](OC)C(=O)[C@H](C)C[C@H](C)/C=C/C=C/C=C(\C)C(OC)C[C@@H]3CC[C@@H](C)[C@@](O)(O3)C(=O)C(=O)N3CCCCC3C(=O)O2)C[C@H]1OC (stereo partly drawn) [Compound 346] | < 1 µM | < 0.000316 µM | 
COC1C[C@@H]2CC[C@@H](C)[C@@](O)(O2)C(=O)C(=O)N2CCCCC2C(=O)O[C@H]([C@H](C)C[C@@H]2CC[C@@H](OCCCN(C)C)[C@H](OC)C2)CC(=O)[C@H](C)/C=C(\C)[C@@H](O)[C@@H](OC)C(=O)[C@H](C)C[C@H](C)/C=C/C=C/C=C/1C (stereo partly drawn) [Compound 363, (1R,9S,12S,15R,16E,18R,19R, 21R,23S,24E,26E,28E,30S,32S,35R)-12-[(1R)-2-[(1S,3R,4R)-4-[3-(dimethylamino)propoxy]-3-methoxy-cyclohexyl]-1-methyl-ethyl]-1,18-dihydroxy-19,30-dimethoxy-15,17,21,23,29,35-hexamethyl-11,36-dioxa-4-azatricyclo[30.3.1.0^4,9]hexatriaconta-16,24,26,28-tetraene-2,3,10,14,20-pentone] | < 1 µM | < 0.000316 µM | 
CO[C@@H]1C[C@H](C[C@@H](C)[C@@H]2CC(=O)[C@H](C)/C=C(\C)[C@@H](O)[C@@H](OC)C(=O)[C@H](C)C[C@H](C)/C=C/C=C/C=C(\C)C(OCCO)C[C@@H]3CC[C@@H](C)[C@@](O)(O3)C(=O)C(=O)N3CCCCC3C(=O)O2)CC[C@H]1OCCCN1CCO[C@H](C)C1 (stereo partly drawn) [Compound 43] |  |  | pIC50 mTORC2 (mTORC2; [1]): B (5 to 6 as B); pIC50 mTORC1 (mTORC1; [2]): A (pIC50 for mTORC1 of >9.5 as A)
CO[C@@H]1C[C@H](C[C@@H](C)[C@@H]2CC(=O)[C@H](C)/C=C(\C)[C@@H](O)[C@@H](OC)C(=O)[C@H](C)C[C@H](C)/C=C/C=C/C=C(\C)C(OC[C@@H](O)c3ccccc3)C[C@@H]3CC[C@@H](C)[C@@](O)(O3)C(=O)C(=O)N3CCCCC3C(=O)O2)CC[C@H]1O (stereo partly drawn) [Compound 217] | 1 to 10 µM | < 0.000316 µM | 
